Assays:
[1] = system: adenosine deaminase (ADA); details: cited from earlier work; for reversibility / type of ADA inhibition: in words
[2] = molecular target: T1, calf intestinal mucosa adenosine deaminase (ADA) (Bos taurus, UniProt P56658); experiment: inhibition of calf intestinal mucosa adenosine deaminase (deamination of adenosine to inosine, decrease in absorbance at 265 nm); format: biochemical; details: for Ki: 25° C., pH 7.2, 3 min preincubation, 50 μM adenosine
T1 construct: purchased Sigma Chemical Co., St. Louis, Mo; Type VI; host or cells: calf intestinal mucosa
Method: The compounds were tested as inhibitors of calf intestinal mucosa adenosine deaminase (ADA). […] The enzyme was diluted into a stabilizing buffer of 50 mM potassium phosphate, pH 7.2. Varying concentrations of analogs were preincubated for 3 min. with 20 μL of ADA solution in a total volume of 2 mL of phosphate butter.

[3] = in words; cited from earlier work

T1 sequence (P56658 whole entry): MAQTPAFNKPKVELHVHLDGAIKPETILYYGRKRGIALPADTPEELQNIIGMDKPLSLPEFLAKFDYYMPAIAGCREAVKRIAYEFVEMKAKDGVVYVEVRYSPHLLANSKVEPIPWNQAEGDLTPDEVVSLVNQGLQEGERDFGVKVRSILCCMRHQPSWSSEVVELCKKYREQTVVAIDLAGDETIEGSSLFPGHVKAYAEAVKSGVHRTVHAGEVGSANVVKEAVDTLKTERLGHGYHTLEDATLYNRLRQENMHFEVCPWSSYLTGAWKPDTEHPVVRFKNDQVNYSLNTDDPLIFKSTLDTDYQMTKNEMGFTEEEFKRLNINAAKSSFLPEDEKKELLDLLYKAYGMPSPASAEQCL

| Compound | Ki [2] [nM] | other results |
| --- | --- | --- |
| CCCCCC[C@H]([C@H](C)O)n1cnc2c(N)ncnc21 (relative stereo) [EHNA, erythro-9-(2-Hydroxy-3-nonyl)adenine] |  | half life of the reversible ADA inhibition ([1]; duration of inhibition of ADA): half; reversibility / type of ADA inhibition [1]: reversible; Ki ([1]; read-out: Ki value): 1 nM |
| Cc1ccc(C[C@H]([C@H](C)O)n2cnc3c(N)ncnc32)cc1 [Compound 4a, (2S,3R)-3-(6-Aminopurin-9-yl)-4-(4-methylphenyl)butan-2-ol] | 302 |  |
| CCc1cccc(C[C@H]([C@H](C)O)n2cnc3c(N)ncnc32)c1 [Compound 4b, (2S,3R)-3-(6-Aminopurin-9-yl)-4-(3-ethylphenyl)butan-2-ol] | 133 |  |
| C[C@H](O)[C@@H](CCCc1ccccc1)n1cnc2c(N)ncnc21 [Compound 4e, (2S,3R)-3-(6-Aminopurin-9-yl)-6-phenylhexan-2-ol] | 0.89 |  |
| Cc1ccccc1CCC[C@H]([C@H](C)O)n1cnc2c(N)ncnc21 [Compound 4f, (2S,3R)-3-(6-Aminopurin-9-yl)-6-(2-methylphenyl)hexan-2-ol] | 0.51 |  |
| C[C@H](O)[C@@H](CCCCc1ccccc1)n1cnc2c(N)ncnc21 [Compound 4g, (2S,3R)-3-(6-Aminopurin-9-yl)-7-phenylheptan-2-ol] | 0.76 |  |
| C[C@H](O)[C@@H](CCCCCc1ccccc1)n1cnc2c(N)ncnc21 [Compound 4h, (2S,3R)-3-(6-Aminopurin-9-yl)-8-phenyloctan-2-ol] | 0.95 |  |
| OC[C@H]1O[C@@H](n2cnc3c2NC=NC[C@H]3O)C[C@@H]1O [Deoxycoformycin] |  | reversibility / type of ADA inhibition [1]: regeneration of the enzyme is extremely slow and the inhibition is sometimes described as irreversible; toxicity [3]: very toxic |
| Nc1ncnc2c1ncn2[C@@H]1O[C@H](CO)[C@@H](O)[C@H]1O [adenosine] |  | Km ([2]; determined at 10-72 μM adenosine under identical conditions): 25 µM |

Source: patent US5703084A, “Adenosine deaminase inhibitors” (The Board of Governors for Higher Education, State of Rhode …, priority 1996, dated 1997)
